Values quoted from earlier work in patent US9023417B2, “Use of a polyamine-poor composition for the production of a medical human food” (Univeriste de Rennes 1, priority 2003, dated 2015).

Test system: Escherischia coli

| SMILES | inhibition of the synthesis of polyamines in Escherischia coli |
| --- | --- |
| NCCC[C@](N)(C(=O)O)C(F)F [a-DFMO, 2-difluoromethylornithine] | not the case |
| C[C@](N)(CCCN)C(=O)O [Alpha-methylornithine, alpha-methylornithine] | inhibiting the synthesis of polyamines |
